Assay results as given in US20170273985A1, “TRICYCLIC DERIVATIVE” (Sunovion Pharmaceuticals Inc., priority 2014, published 2017).

Experiments:
Assay type in all cases: biochemical
PDE1B = PDE1B (Homo sapiens, UniProt Q01064); assay: In vitro HTRF PDE1 inhibition assay (PDE1B)
How it was run: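 PDE1A3, 1B or 1C with calmodulin hydrolysed 100 nM cGMP in Tris buffer pH 7.4 (1 mM CaCl2, 10 mM MgCl2, 0.1% BSA, 1% DMSO) for 45 min at 37 °C. Remaining cGMP was measured by HTRF competition (d2-cGMP, anti-cGMP cryptate; 665/615 nm). IC50 is reported in bins: <1, 1-10 and 10-100 μM.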

PDE1A3 = PDE1A3 (Homo sapiens, UniProt P54750); assay: In vitro HTRF PDE1 inhibition assay (PDE1A3)
From the text: (§1) An exemplary procedure for the in vitro Homogenous Time Resolved Fluorescence assay, which can be used to determine the inhibitory action of compounds of the invention toward PDE1 or its isoforms, follows. The HTRF PDE1 assay utilized the HTRF (Homogenous Time Resolved Fluorescence) technology, which is based on the competition between unlabeled cyclic nucleotide and cyclic nucleotide labeled with XL665 for the binding to cyclic nucleotide-specific antibody labeled with cryptate. The HTRF signal is thus inversely proportional to the concentration of cyclic nucleotide being measured. Since phosphodiesterases break down cyclic nucleotides the HTRF signal was used to determine PDE activity. The Cisbio cGMP HTRF assay kit (Cat no: 62GM2PEC) was utilized. Cyclic GMP was diluted to 200 nM in HTRF assay buffer (1 mM CaCl2, 10 mM MgCl2, 10 mM Tris-HCl, 0.1% BSA, pH 7.4). 10 μl of compound or DMSO was diluted in 200 nM cyclic GMP solution and added to wells of a 96 well white plate to give 100 nM cyclic GMP in 1% DMSO final concentration. PDE (1A3, 1B or IC) was diluted to 2× working concentration in HTRF assay buffer with 2 μg/ml calmodulin, and 10 μl was added to initiate the reaction. The plate was then incubated for 45 minutes at 37° C. d2-Labelled cyclic GMP and anti-cGMP cryptate were diluted in 50 mM phosphate buffer, 0.8 M KF, 1% Triton X100, 0.2% BSA, pH 7.0. Following incubation 10 μl d2-cGMP, then 10 μl anti cGMP cryptate were added to each well and the plate was incubated for 45 minutes at room temperature. The plate was then read on Perkin Elmer Victor at 2 different FRET readings ex/emm 340 nm/665 nm and 340 nm/615 nm. Compounds having an IC50 of <1 μM, are denoted as +++. Compounds having an IC50 of 1−10 μM, are denoted as ++. Compounds having an IC50 of 10-100 μM, are denoted as +.

PDE1C = PDE1C (Homo sapiens, UniProt Q14123); assay: In vitro HTRF PDE1 inhibition assay (PDE1C)
From the text: as §1

| SMILES | IC50 (PDE1B; Table 22) [µM] | IC50 (PDE1A3; Table 23) [µM] | IC50 (PDE1C; Table 24) [µM] | IC50 (PDE1B; Table 25) [µM] | IC50 (PDE1A3; Table 26) [µM] | IC50 (PDE1C; Table 27) [µM] |
| --- | --- | --- | --- | --- | --- | --- |
| CC(C)c1ncc2c(=O)n3c(nn12)N(CCCc1ccccn1)CC3 [Example 11] | < 1 | < 1 | 1 to 10 |  |  |  |
| O=c1c2cnc(C3CCOCC3)n2nc2n1CCN2CCCC(F)(F)F [Example 56] | < 1 | 1 to 10 | 10 to 100 |  |  |  |
| O=c1c2cnc(C3CCOCC3)n2nc2n1CCN2Cc1cccc(F)c1 [Example 155] |  |  |  | < 1 | < 1 | < 1 |
| CC(C)CN1CCCn2c1nn1c(C(C)C)ncc1c2=O [Example 16] | < 1 | < 1 | < 1 |  |  |  |
| CC(C)c1ncc2c(=O)n3c(nn12)N(CC1CCOCC1)CC1(CC1)C3 [Example 200] |  |  |  | < 1 | < 1 | < 1 |
| CN1c2nn3c(C4CCOCC4)ncc3c(=O)n2CCC1c1ccc(Cl)cc1 (stereo not drawn) [Example 69] | < 1 | < 1 | 1 to 10 |  |  |  |
| CC(C)c1ncc2c(=O)n3c(nn12)N(CC1CCOCC1)C[C@@H](C)C3 [Example 232] |  |  |  | < 1 | < 1 | < 1 |
| CCN1c2nn3c(C4CCOCC4)ncc3c(=O)n2CC1c1ccc(OC)cc1 (racemic) [Example 66] | < 1 | < 1 | 1 to 10 |  |  |  |
| CC1CN(CC2CCOCC2)c2nn3c(C(C)C)ncc3c(=O)n2C1 (stereo not drawn) [Example 64] | < 1 | < 1 | < 1 |  |  |  |
| CC(C)c1ncc2c(=O)n3c(nn12)N(CC1CCOCC1)C[C@H](C)C3 [Example 233] |  |  |  | < 1 | < 1 | < 1 |
| O=c1c2cnc(C3CCOCC3)n2nc2n1CCCN2Cc1ccccc1 [Example 59] | < 1 | < 1 | 1 to 10 |  |  |  |
| CC(C)CCN1CCn2c1nn1c(C3CCOCC3)ncc1c2=O [Example 172] |  |  |  | < 1 | < 1 | < 1 |
| CC(C)c1ncc2c(=O)n3c(nn12)N(CCCc1ccccn1)CCC3 [Example 120, 9-Isopropyl-1-[3-(2-pyridinyl)propyl]-1,2,3,4-tetrahydro-6H-imidazo[5,1-f]pyrimido[2,1-c][1,2,4]triazin-6-one] | < 1 | < 1 | < 1 |  |  |  |
| CC(C)n1ncc2c(=O)n3c(nc21)N(C)C(c1ccc(Cl)cc1)CC3 (stereo not drawn) [Example 81] | < 1 | < 1 | 1 to 10 |  |  |  |
| O=c1c2cnc(C3CCOCC3)n2nc2n1CCN2Cc1ccccc1F [Example 156] |  |  |  | < 1 | < 1 | < 1 |
| O=c1c2cnc(C3CCCC3)n2nc2n1CCCC2 [Example 137] | < 1 | 1 to 10 | 1 to 10 |  |  |  |
| O=c1c2cnc(C3CCOCC3)n2nc2n1CCN2CCC1(C(F)(F)F)CC1 [Example 160] |  |  |  | < 1 | < 1 | < 1 |
| CC(C)(C)CCN1CCn2c1nn1c(C3CCOCC3)ncc1c2=O [Example 55] | < 1 | < 1 | < 1 |  |  |  |
| O=c1c2cnc(C3CCOCC3)n2nc2n1CCN2CC1CCC(F)(F)CC1 [Example 171] |  |  |  | < 1 | < 1 | < 1 |
| CC(C)n1ncc2c(=O)n3c(nc21)N(Cc1ccc(C#N)cc1)CCC3 [Example 79] | < 1 | < 1 | < 1 |  |  |  |
| O=c1c2cnc(C3CCOCC3)n2nc2n1CCN2Cc1ccc(F)cc1 [Example 154] |  |  |  | < 1 | < 1 | < 1 |
| O=c1c2cnc(C3CCOCC3)n2nc2n1CCN2CC1CCCCC1 [Example 153] |  |  |  | < 1 | < 1 | < 1 |
| CC(C)c1ncc2c(=O)n3c(nn12)N(CCCCCCO)CCC3 [Example 106] | < 1 | < 1 | < 1 |  |  |  |
| CC(C)c1ncc2c(=O)n3c(nn12)N(CCC1CCOCC1)CCC3 [Example 24] | < 1 | < 1 | < 1 |  |  |  |
| O=c1c2cnc(C3CCOCC3)n2nc2n1CCCN2CC1(C(F)(F)F)CC1 [Example 187] |  |  |  | < 1 | < 1 | < 1 |
